Measured values taken from article PMC12557437, “Research towards selective inhibition of the CLK3 kinase” (Beilstein Journal of Organic Chemistry, 2025).
“Also recorded” adds a separate entry of the source.

Key:
Type in all cases: biochemical
Hs_DYRK1B = biological target: T1, Hs_DYRK1B (Homo sapiens, UniProt Q9Y463); experiment: radiometric γ33P-ATP kinase assay (Eurofins); conditions: 15 µM ATP; dose-response, points in duplicate
T1 construct: purchased Eurofins, UK
Protocol: (§1) Finally, in order to complete our profiling of VS-77, we then measured its activity against the DYRK 1A, DYRK1B and DYRK2 kinases and the results are reported in Table 3.
(§2) 2- Kinase inhibition studies
(§3) Kinase enzymatic activities were assayed using both luminescent ADP detection assay
(§4) (ADP-GloTM assay kit, Promega, Madison, WI) or radiometric kinase assay. These
(§5) assays were performed using the protocols described in our previous publication. […]
(§6) 1.Brahmaiah, D.; Kanaka Durga Bhavani, A.; Aparna, P.; Sampath Kumar, N.; Solhi,
(§7) H.; Le Guevel, R.; Baratte, B.; Ruchaud, S.; Bach, S.; Singh Jadav, S.; Raji Reddy, C.;
(§8) Roisnel, T.; Mosset, P.; Levoin, N.; Grée, R. Bioorg.
(§9) R.; Baratte, B.; Robert, T.; Ruchaud, S.; Bach, S.; Jadav, S. S.; Reddy, C. R.; Mosset,
(§10) P.; Gouault, N.; Levoin, N.; Grée, R. Molecules 2022, 27, 6149. […]

Rn_DYRK1A [1] = biological target: T2, Rn_DYRK1A (Rattus norvegicus, UniProt Q63470); experiment: radiometric γ33P-ATP kinase assay (Eurofins); conditions: 15 µM ATP; dose-response, points in duplicate
Protocol: as §1, §2, §3, §4, §5, §6, §7, §8, §9, §10

Hs_DYRK1A = biological target: T3, Hs_DYRK1A (Homo sapiens, UniProt Q13627); experiment: radiometric γ33P-ATP kinase assay (Eurofins); conditions: 15 µM ATP; dose-response, points in duplicate
T3 construct: purchased Eurofins, UK
Protocol: as §1, §2, §3, §4, §5, §6, §7, §8, §9, §10

Hs_DYRK2 = biological target: T4, Hs_DYRK2 (Homo sapiens, UniProt Q92630); experiment: radiometric γ33P-ATP kinase assay (Eurofins); conditions: 15 µM ATP; dose-response, points in duplicate
T4 construct: purchased Eurofins, UK
Protocol: as §1, §2, §3, §4, §5, §6, §7, §8, §9, §10

Mm_CLK1 [2] = biological target: T5, Mm_CLK1 (Mus musculus, UniProt P22518); experiment: radiometric γ33P-ATP kinase assay (Eurofins)
Protocol: (§11) The results are reported in Table 2 and in Supporting Information File 1.
as §2, §3, §4, §5, §6, §7, §8
(§12) R.; Baratte, B.; Robert, T.; Ruchaud, S.; Bach, S.; Jadav, S. S.; Reddy, C. […]

Mm_CLK4 = Mm_CLK4 (Mus musculus, UniProt O35493); experiment: radiometric γ33P-ATP kinase assay (Eurofins)
Protocol: as §11, §2, §3, §4, §5, §6, §7, §8, §12

Mm_CLK2 = Mm_CLK2 (Mus musculus, UniProt O35491); experiment: radiometric γ33P-ATP kinase assay (Eurofins)
Protocol: as §11, §2, §3, §4, §5, §6, §7, §8, §12

Rn_DYRK1A [3] = biological target: T2, Rn_DYRK1A; experiment: primary screening, short panel of mammalian kinases; conditions: ATP 10 µM, means, n = 2, read-out: Residual kinase activity Rn_DYRK1A
Excerpt: (§13) Our molecules have been submitted first to a primary screening against a panel of eight disease-related kinases: five members of the CMGC (for CDK, MAPK, GSK3, and CLK) group (CDK5/p25, CDK9/CyclinT, GSK3β, CLK1 and DYRK1A), one CAMK (calmodulin/calcium regulated kinase PIM1), one CK1 (the casein kinase CK1ε), and haspin as a […] kinase.
(§14) Figure 4 Primary evaluation of the inhibition of the new quinazolines against a short panel of mammalian kinases. Residual kinase activities are expressed in % of maximal activity, i.e., measured in the absence of inhibitor but with an equivalent dose of DMSO (solvent of the tested compounds). ATP concentration used in the kinase assays was 10 µM (values are means, n = 2). Kinases are from human origin (Homo sapiens) except CLK1 (from Mus musculus) and DYRK1A (from Rattus norvegicus). […]

Hs_HASPIN = biological target: T6, Hs_HASPIN (Homo sapiens, UniProt Q8TF76); experiment: as above; conditions: ATP 10 µM, means, n = 2, read-out: Residual kinase activity Hs_HASPIN
T6 sequence (Q8TF76 1-798): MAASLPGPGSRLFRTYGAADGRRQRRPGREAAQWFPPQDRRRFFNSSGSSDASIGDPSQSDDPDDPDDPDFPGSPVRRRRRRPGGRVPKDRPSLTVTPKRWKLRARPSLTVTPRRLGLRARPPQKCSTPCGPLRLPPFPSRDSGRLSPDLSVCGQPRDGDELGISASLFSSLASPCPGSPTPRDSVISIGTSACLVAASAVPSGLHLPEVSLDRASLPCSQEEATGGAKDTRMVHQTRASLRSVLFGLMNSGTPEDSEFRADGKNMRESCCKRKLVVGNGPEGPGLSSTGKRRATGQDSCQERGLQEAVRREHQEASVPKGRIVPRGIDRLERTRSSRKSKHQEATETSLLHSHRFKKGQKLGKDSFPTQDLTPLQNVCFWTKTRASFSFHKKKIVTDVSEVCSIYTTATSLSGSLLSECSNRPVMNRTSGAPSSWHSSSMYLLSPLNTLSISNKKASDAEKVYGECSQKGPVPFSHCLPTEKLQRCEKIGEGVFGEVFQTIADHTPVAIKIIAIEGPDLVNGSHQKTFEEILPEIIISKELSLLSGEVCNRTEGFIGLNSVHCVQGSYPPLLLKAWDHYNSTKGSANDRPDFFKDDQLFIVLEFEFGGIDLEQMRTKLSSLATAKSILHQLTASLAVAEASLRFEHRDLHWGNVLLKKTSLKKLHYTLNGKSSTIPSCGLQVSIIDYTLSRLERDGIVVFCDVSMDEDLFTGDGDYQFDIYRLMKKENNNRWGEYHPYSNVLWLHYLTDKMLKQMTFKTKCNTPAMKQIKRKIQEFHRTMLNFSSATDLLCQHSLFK
Excerpt: as §13, §14

Mm_CLK1 [4] = biological target: T5, Mm_CLK1; experiment: as above
Excerpt: as §13, §14

Hs_PIM1 = Hs_PIM1 (Homo sapiens, UniProt P11309); experiment: as above; conditions: ATP 10 µM, means, n = 2, read-out: Residual kinase activity Hs_PIM1
Excerpt: as §13, §14

Hs_GSK3β = Hs_GSK3β (Homo sapiens, UniProt P49841); experiment: as above; conditions: ATP 10 µM, means, n = 2, read-out: Residual kinase activity Hs_GSK3β
Excerpt: as §13, §14

Hs_CDK5/p25 = Hs_CDK5/p25 (Homo sapiens, UniProt Q00535); experiment: as above; conditions: ATP 10 µM, means, n = 2, read-out: Residual kinase activity Hs_CDK5/p25
Excerpt: as §13, §14

DYRK kinases = experiment: radiometric kinase assay, summary for DYRK kinases; conditions: DYRK1A, DYRK1B, DYRK2; listed as VS-77
Excerpt: as §1
This point will be discussed in the molecular modeling part below.

[5] = 15 µM ATP, dose-response, points in duplicate

T5 sequence (P22518 whole entry): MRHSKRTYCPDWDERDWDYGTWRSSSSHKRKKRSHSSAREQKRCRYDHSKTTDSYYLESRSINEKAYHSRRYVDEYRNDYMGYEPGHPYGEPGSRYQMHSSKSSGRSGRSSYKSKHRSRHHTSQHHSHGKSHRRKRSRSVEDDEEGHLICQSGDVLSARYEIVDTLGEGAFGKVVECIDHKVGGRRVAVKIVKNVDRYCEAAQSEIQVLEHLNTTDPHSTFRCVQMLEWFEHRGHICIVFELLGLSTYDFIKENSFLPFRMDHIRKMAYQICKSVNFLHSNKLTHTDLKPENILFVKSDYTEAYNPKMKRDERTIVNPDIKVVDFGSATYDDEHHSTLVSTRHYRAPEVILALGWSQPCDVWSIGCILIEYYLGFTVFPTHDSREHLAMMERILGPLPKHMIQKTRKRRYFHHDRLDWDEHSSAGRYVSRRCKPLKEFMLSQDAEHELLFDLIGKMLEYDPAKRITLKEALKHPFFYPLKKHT
Sequence of Hs_GSK3β (P49841 whole entry): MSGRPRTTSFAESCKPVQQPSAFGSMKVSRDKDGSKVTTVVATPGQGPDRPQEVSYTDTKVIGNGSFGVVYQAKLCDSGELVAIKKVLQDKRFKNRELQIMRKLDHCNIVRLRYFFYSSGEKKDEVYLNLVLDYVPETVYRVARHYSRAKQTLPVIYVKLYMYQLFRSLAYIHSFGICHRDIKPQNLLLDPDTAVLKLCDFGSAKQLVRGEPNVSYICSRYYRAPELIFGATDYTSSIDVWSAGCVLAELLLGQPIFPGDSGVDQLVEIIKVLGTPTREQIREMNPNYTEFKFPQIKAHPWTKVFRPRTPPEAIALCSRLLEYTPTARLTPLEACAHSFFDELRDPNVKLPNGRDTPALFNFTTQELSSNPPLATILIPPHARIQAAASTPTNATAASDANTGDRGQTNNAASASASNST
Sequence of Mm_CLK4 (O35493 whole entry): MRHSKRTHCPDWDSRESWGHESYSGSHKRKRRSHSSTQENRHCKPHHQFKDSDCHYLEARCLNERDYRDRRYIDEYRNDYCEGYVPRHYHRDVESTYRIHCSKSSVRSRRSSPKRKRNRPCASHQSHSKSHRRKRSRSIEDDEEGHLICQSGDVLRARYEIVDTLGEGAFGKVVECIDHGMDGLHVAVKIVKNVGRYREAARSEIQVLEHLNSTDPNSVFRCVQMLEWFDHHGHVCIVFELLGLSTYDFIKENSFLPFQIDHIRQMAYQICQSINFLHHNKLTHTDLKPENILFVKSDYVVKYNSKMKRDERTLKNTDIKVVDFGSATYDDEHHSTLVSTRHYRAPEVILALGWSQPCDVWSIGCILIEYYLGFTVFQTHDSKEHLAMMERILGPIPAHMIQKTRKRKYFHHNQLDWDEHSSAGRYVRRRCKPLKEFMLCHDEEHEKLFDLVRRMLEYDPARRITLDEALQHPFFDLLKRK
Sequence of Mm_CLK2 (O35491 whole entry): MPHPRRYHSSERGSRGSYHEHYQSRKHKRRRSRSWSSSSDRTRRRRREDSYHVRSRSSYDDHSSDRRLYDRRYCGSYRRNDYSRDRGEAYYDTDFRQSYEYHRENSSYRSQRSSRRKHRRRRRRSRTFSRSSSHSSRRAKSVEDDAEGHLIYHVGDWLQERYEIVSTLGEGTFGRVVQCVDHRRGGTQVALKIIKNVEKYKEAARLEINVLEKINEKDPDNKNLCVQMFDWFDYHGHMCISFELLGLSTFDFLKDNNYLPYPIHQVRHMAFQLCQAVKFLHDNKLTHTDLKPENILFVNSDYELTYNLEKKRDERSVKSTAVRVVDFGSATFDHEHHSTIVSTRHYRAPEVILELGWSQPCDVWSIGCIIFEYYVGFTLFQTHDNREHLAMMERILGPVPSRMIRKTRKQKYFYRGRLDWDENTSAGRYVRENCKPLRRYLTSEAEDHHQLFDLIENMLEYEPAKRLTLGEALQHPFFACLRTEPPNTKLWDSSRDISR
Sequence of Hs_PIM1 (P11309 whole entry): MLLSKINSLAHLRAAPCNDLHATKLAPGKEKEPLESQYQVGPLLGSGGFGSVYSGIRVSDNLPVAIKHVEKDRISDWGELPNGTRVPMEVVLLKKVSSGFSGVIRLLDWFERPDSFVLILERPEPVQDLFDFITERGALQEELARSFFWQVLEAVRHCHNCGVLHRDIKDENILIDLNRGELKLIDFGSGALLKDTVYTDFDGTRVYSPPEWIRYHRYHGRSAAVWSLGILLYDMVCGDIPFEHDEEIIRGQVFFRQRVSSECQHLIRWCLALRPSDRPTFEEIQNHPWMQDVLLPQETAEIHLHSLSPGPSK
Sequence of Hs_CDK5/p25 (Q00535 whole entry): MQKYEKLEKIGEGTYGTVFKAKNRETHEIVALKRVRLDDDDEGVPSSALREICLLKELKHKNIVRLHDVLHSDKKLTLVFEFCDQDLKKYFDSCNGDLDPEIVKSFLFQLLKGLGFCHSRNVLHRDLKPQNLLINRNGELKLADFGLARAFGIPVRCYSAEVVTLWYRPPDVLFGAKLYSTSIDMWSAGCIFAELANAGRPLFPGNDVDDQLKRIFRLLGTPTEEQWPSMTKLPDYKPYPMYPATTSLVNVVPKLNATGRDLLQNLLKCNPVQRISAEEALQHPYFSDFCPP
Sequence of Hs_CDK5/p25 (Q15078 99-307 partner limits assumed): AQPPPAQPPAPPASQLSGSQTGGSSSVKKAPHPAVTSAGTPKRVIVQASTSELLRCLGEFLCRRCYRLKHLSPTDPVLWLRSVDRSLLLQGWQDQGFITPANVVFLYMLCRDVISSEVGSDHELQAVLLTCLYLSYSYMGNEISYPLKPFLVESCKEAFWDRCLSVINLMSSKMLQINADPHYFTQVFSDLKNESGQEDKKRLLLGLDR
T1 sequence (Q9Y463 whole entry): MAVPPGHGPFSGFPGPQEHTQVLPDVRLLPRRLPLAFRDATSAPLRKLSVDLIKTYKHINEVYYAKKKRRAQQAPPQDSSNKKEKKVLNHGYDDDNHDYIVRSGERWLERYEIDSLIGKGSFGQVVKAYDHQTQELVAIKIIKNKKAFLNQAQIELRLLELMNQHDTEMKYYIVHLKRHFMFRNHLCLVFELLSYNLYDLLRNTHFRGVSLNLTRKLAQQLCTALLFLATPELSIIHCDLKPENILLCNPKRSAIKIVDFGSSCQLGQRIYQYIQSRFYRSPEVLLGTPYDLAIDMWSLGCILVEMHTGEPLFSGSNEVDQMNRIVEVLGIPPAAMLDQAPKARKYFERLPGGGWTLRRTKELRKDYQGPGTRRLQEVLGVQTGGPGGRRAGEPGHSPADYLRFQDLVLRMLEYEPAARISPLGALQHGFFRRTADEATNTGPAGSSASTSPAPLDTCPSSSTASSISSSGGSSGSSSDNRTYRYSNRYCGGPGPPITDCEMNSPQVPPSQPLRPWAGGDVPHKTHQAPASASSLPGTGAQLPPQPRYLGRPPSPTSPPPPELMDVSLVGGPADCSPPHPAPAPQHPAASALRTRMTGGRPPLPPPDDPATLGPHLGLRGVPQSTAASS
T4 sequence (Q92630 whole entry): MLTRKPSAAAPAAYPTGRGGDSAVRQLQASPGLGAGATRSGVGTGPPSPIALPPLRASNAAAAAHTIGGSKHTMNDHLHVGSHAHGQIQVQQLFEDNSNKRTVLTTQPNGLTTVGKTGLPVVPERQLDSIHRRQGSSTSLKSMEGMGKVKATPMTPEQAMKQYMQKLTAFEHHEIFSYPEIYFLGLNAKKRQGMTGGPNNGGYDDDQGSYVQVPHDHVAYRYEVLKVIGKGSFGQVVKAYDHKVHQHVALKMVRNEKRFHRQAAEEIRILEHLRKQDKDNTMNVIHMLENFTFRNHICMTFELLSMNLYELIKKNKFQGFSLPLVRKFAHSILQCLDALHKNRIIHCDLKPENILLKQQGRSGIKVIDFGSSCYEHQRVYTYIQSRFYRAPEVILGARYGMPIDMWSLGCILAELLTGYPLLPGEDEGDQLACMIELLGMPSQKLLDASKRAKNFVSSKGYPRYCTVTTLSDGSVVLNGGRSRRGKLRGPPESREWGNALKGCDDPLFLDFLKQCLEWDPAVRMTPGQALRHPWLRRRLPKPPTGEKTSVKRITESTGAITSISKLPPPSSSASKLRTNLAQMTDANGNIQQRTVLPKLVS

IC50 (Hs_DYRK1B): 4.6 µM
IC50 (Rn_DYRK1A [1]): 14.8 µM
IC50 (Hs_DYRK1A): 5.31 µM
IC50 (Hs_DYRK2): 11.7 µM
IC50 (Mm_CLK1 [2]; [5]): 0.127 µM
Mm_CLK3/Mm_CLK1 (Mm_CLK1 [2]; ratio of IC50 values): 2.38
IC50 (Mm_CLK4; [5]): 0.062 µM
Mm_CLK3/Mm_CLK4 (Mm_CLK4; ratio of IC50 values): 4.89
IC50 (Mm_CLK2; [5]): 0.061 µM
Mm_CLK3/Mm_CLK2 (Mm_CLK2; ratio of IC50 values): 4.97
remaining activity at 1 µM (Rn_DYRK1A [3]; compound 1 μM): 92%
remaining activity at 10 µM (Rn_DYRK1A [3]; compound 10 μM): 62%
remaining activity at 1 µM (Hs_HASPIN; compound 1 μM): 74%
remaining activity at 10 µM (Hs_HASPIN; compound 10 μM): 74%
activity against CLK1 in primary screening (Mm_CLK1 [4]; 1 and 10 µM): significant activity against CLK1
remaining activity at 1 µM (Mm_CLK1 [4]; compound 1 μM, ATP 10 µM, means, n = 2, read-out: Residual kinase activity Mm_CLK1): 20%
remaining activity at 10 µM (Mm_CLK1 [4]; compound 10 μM, ATP 10 µM, means, n = 2, read-out: Residual kinase activity Mm_CLK1): 11%
remaining activity at 1 µM (Hs_PIM1; compound 1 μM): 88%
remaining activity at 10 µM (Hs_PIM1; compound 10 μM): ≥ 100%
remaining activity at 1 µM (Hs_GSK3β; compound 1 μM): ≥ 100%
remaining activity at 10 µM (Hs_GSK3β; compound 10 μM): 43%
remaining activity at 1 µM (Hs_CDK5/p25; compound 1 μM): 92%
remaining activity at 10 µM (Hs_CDK5/p25; compound 10 μM): 37%
Structure (SMILES): Cc1ccc(-n2cc(COc3cccc4cnc(Nc5cc(Cl)cc(-c6cccc(C(=O)O)c6)c5)nc34)nn2)c([N+](=O)[O-])c1 [Compound 13b]
inhibition of DYRK kinases (DYRK kinases): low, but significant inhibition; also recorded: weak inhibitor
